Reference: US8722052B2, “Vaccinia virus protein A46 peptide and use thereof” (priority 2008, dated 2014)
Square brackets hold non-standard residues; d marks the D form. Ends that are not written are not given here.

Experiments:
TLR4 [1] = molecular target: T1, TLR4 (Mus musculus, UniProt Q9QUK6); assay: LPS-induced TNFα in immortalised murine macrophages, ELISA; assay type: cell-based; parameters: endogenous in cells; immortalised murine bone-marrow-derived macrophages; conditions: peptide 1, 3, 6.25 and 12.5 μM, 20 ng/ml LPS, 6 h
T1 sequence (Q9QUK6 26-835): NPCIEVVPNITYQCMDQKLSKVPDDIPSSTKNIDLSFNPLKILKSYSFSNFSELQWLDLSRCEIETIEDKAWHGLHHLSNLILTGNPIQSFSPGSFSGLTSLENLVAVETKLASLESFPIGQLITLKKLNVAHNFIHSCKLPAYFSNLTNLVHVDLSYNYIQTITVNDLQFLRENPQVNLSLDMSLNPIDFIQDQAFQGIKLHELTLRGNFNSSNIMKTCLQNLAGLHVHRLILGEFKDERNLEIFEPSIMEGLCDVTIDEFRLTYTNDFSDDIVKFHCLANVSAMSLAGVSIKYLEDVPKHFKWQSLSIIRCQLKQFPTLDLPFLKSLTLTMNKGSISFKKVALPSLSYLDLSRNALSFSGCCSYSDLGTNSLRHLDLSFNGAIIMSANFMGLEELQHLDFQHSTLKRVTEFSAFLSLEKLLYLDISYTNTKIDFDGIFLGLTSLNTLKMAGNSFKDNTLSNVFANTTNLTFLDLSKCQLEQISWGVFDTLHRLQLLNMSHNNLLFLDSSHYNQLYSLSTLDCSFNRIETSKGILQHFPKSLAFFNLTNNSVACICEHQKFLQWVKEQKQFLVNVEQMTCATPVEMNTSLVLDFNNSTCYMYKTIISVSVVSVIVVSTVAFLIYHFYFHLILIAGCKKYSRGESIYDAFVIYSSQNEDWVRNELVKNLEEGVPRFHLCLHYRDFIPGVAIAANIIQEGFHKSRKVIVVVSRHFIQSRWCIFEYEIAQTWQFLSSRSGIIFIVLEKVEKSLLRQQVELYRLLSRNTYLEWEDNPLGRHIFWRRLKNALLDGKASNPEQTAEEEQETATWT
T1 sequence (Q9JHF9 19-160 partner): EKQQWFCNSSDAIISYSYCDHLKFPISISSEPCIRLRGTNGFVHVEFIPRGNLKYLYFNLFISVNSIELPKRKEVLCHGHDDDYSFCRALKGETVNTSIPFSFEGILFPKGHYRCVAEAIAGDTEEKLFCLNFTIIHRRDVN

TLR4 [2] = assay: LPS-induced TNFα in primary human PBMC, ELISA; assay type: cell-based; conditions: 6 h; for inhibition of LPS-induced hTNFα production: peptide 1, 5 or 25 μM 1 h before 10 ng/ml LPS; for inhibitory potential compared to parental A464 (alanine scan): peptide 5 μM, 10 ng/ml LPS
Protocol: FIGS. 13A and B are bar charts showing the effect of A467 and A464 on LPS-induced TNFα production and on cell viability in primary human cells. Peripheral blood mononuclear cells (PBMCs) were seeded in 96 well plates (1 ×10^6 cells/ml) 24 hours before treatment. A467 (SEQ ID NO. 23) and A464 (SEQ ID NO. 20) were added to the cells at 1, 5 and 25 μM 1 hour before stimulating with 10 ng/ml LPS. The peptides were added into the unstimulated control wells at 25 μM. Supernatants were collected 6 hours after stimulation and assayed for TNFα production by ELISA (A). The cells were assayed for viability by the MTT assay (B). No peptides were added to the control wells (black bars). Data is representative of at least three experiments each performed in triplicate and is expressed as mean±s.d;
(§1) FIGS. 14A and B are bar charts showing the comparison of the inhibitory effect of the L- and D-forms of A464 on LPS-induced TNFα in primary human and murine cells. PBMC (1×10^6 cells/ml, (A)) or immortalised murine macrophages (1.5×10^5 cells/ml, (B)) were seeded in 96 well plates 24 hours before treatment. L-form and D-form A464 peptides (with the 9R delivery peptide on the C-terminus, SEQ ID NO. 20) were added to the cells at a concentration of 1, 5 or 25 μM 1 hour before stimulating with 10 ng/ml LPS. Supernatants were collected 6 hours after stimulation and assayed for either human (A) or murine (B) TNFα production by ELISA. No peptides were added to the control wells (black bars). Data is representative of at least three experiments each performed in triplicate and is expressed as mean±s.d;
(§2) FIGS. 15A and B are bar charts showing the effect of the D-form A464 peptide with the TAT delivery sequence on LPS induced TNFα in primary human and murine cells. PBMC (A) and immortalised murine macrophages (B) were seeded in 96 well plates 24 hours before treatment. D-form of A467 (SEQ ID NO. 37) and A464 (SEQ ID NO. 36) with the TAT delivery sequence were added to the cells at a concentration of 1, 5 or 25 μM 1 hour before stimulating with 10 ng/ml LPS. The peptides were added into the unstimulated control wells at 25 μM. Supernatants were collected 6 hours after stimulation and assayed for either human (A) or murine (B) TNFα production by ELISA. No peptides were added to the control wells (black bars). Data is representative of at least three experiments each performed in triplicate and is expressed as mean±s.d;
(§3) FIGS. 16A and B are bar charts showing the effect of attaching 9R to the N-terminus of A464 on LPS-induced TNFα in primary human and murine cells. Immortalised murine macrophages (A) and PBMC (B) were seeded in 96 well plates 24 hours before treatment. L-form of A467 (SEQ ID NO. 39) and A464 (SEQ ID NO. 38) with the 9R-delivery sequence at the N-terminus were added to the cells at a concentration of 1, 5 or 25 μM 1 hour before stimulating with 10 ng/ml LPS. The peptides were added into the unstimulated control wells at […]. Supernatants were collected 6 hours after stimulation and assayed for either murine (A) or human (B) TNFα production by ELISA. No peptides were added to the control wells (black bars). Data is representative of at least three experiments each performed in triplicate and is expressed as mean±s.d;
FIGS. 17A and B are bar charts showing the effect of the D-form A464 with 9R at the N-terminus on LPS-induced TNFα in primary human and murine cells. Immortalised murine macrophages (A) and PBMC (B) were seeded in 96 well plates 24 hours before treatment. D-form of A467 (SEQ ID NO. 39) and A464 (SEQ ID NO. 38) peptides with the 9R-delivery sequence at N-terminus were added to the cells at a concentration of 1, 5 or 25 μM 1 hour before stimulating with 10 ng/ml LPS. The peptides were added into the unstimulated control wells at 25 μM. Supernatants were collected 6 hours after stimulation and assayed for either murine (A) or human (B) TNFα production by ELISA. No peptides were added to the control wells (black bars). […]

TLR4 [3] = molecular target: T1, TLR4; assay: LPS-induced TNFα in immortalised murine macrophages, ELISA; assay type: cell-based; parameters: endogenous in cells; immortalised murine bone-marrow-derived macrophages; conditions: 6 h; for inhibition of LPS-induced mTNFα production: peptide 1, 5 or 25 μM 1 h before 10 ng/ml LPS
Protocol: as §1, §2, §3
FIGS. 17A and B are bar charts showing the effect of the D-form A464 with 9R at the N-terminus on LPS-induced TNFα in primary human and murine cells. Immortalised murine macrophages (A) and PBMC (B) were seeded in 96 well plates 24 hours before treatment. D-form of A467 (SEQ ID NO. 39) and A464 (SEQ ID NO. 38) peptides with the 9R-delivery sequence at N-terminus were added to the cells at a concentration of 1, 5 or 25 μM 1 hour before stimulating with 10 ng/ml LPS. The peptides were added into the unstimulated control wells at 25 μM. Supernatants were collected 6 hours after stimulation and assayed for either murine (A) or human (B) TNFα production by ELISA. No peptides were added to the control wells (black bars). Data is representative of at least three experiments each performed in triplicate and is expressed as mean±s.d;
FIGS. 18A and B are bar charts showing the effect of shortened A464 peptides with deletions of N- and C-terminal amino acids on LPS-induced TNFα in murine macrophages. Immortalised murine macrophages were seeded in 96 well plates (1.5×10^5 cells/ml) 24 hours before treatment. A464 peptides with a deletion of one (N-1) (SEQ ID NO. 40) or two (N-2) (SEQ ID NO. 41) amino acids from the N-terminus (A), or three (C-3) (SEQ ID NO. 42) or six (C-6) (SEQ ID NO. 43) amino acids from the C-terminus (B), were added to the cells at a concentration of 1, 5 or 25 μM 1 hour before stimulating with 10 ng/ml LPS. Peptides were added to the control wells at 25 μM. […]

cell viability = assay: MTT cell viability assay, more detailed investigation of screening hits; assay type: cell-based; conditions: cell type not stated
Protocol: Cell viability was measured by assessing mitochondrial function using an MTT (3-(4,5-Dimethylthiazol-2-yl)-2,5-diphenyltetrazolium bromide) assay. Cells were seeded into 96 well plates and treated with peptides and agonists as described above in relation to the Figs. Wells containing medium only served as a blank control. To terminate treatment of cells, medium was removed and the cells were washed once with PBS. 200 μl per well of 1 mg/ml MTT in PBS was added directly to the cells and the plates were incubated at 37° C. for 14-16 hrs in the dark. MTT was then removed and 200 μl per well of dimethyl sulphoxide (DMSO) was added and cells incubated for 20 min at 37° C. in the dark, prior to absorbance being read at 595 nm on a spectrophotometer.

TLR4 [4] = molecular target: T1, TLR4; assay: LPS-induced TNFα in RAW264.7 cells, ELISA; assay type: cell-based, murine; parameters: endogenous in cells; host or cells: RAW264.7; immortalised murine bone-marrow-derived macrophages; conditions: peptide 5 or 25 μM 1 h before 10 ng/ml LPS, 6 h, A464 5 μM as positive control
Protocol: FIGS. 5A and B are bar charts showing the dose-dependent inhibitory effect of A464R on LPS-induced TNFα in murine RAW264.7 cells. A464 (SEQ ID NO. 20) was added to the cells at a concentration of 5, 20 or 50 μM 1 hour before stimulating with 100 ng/ml LPS. Supernatant was collected 24 hours after stimulation and assayed for TNFα by ELISA (A) and cells were assayed for viability by the MTT assay (B.). No peptides were added to the control wells (black bars). Data is representative of at least three experiments each performed in triplicate and is expressed as mean±s.d;
FIGS. 6A and B are bar charts showing the effect of peptides derived from A46 on LPS-induced TNFα in murine RAW264.7 cells. A46 peptides were added to the cells at a concentration of 1 or 5 μM 1 hour before stimulating with 10 ng/ml LPS. Supernatants were collected 6 hours after stimulation and assayed for TNFα by ELISA. No peptides were added into the control wells (black bars). (A) peptides A461-A467 (SEQ ID NO. 17 to 23). (B) peptides A468-A4614 (SEQ ID NO. 24 to 30) (excluding A4610 SEQ ID NO. 26 and A4612 SEQ ID NO. 28). Data is representative of at least two experiments each performed in triplicate and is expressed as mean±s.d;
FIGS. 22 A and B are bar charts showing the effect of short A467 and A464 peptides, with 9R on either N- or C-terminus, on LPS- induced TNFα production in murine RAW264.7 cells. Cells were seeded in 96 well plates (1.5×10^5 cells/ml) 24 hours before treatment. Short A467 and short A464 peptides with the 9R delivery sequence on either the C-terminus (sA464C9R) (SEQ ID NO. 56) (A) or the N-terminus (sA464N9R) (SEQ ID NO. 57) (B) were added to the cells at a concentration of 5 or 25 μM 1 hour before stimulating with 10 ng/ml LPS. Normal full length A467 (SEQ ID NO. 23) and A464 (SEQ ID NO. 20) peptides were added at a concentration of 5 μM as positive controls. Supernatants were collected 6 hours after stimulation with the agonist and assayed for TNFα, by ELISA. No peptides were added to the control wells (black bars). Data is representative of at least three experiments each performed in triplicate and is expressed as mean±s.d;
Cytokine and chemokine production from cells or mouse serum was measured by ELISA using Duoset kits from R&D systems, according to the manufacturer's instructions.

9R-FKLI (RRRRRRRRRFKLI) [Peptide 9R-FKLI]
inhibition of TLR4-induced murine TNFα by shorter versions of sA464N9R (TLR4 [1]): did not

D-A464-TAT ([dK][dY][dS][dF][dK][dL][dI][dL][dA][dE][dY][dY]G[dR][dK][dK][dR][dR][dQ][dR][dR][dR])
inhibition of LPS-induced hTNFα production (TLR4 [2]): failed to inhibit LPS-induced hTNFα production at 1-25 μM | inhibition of LPS-induced mTNFα production (TLR4 [3]): still inhibited, but only at 5-25 μM

DFVNFVKDMICRRRRRRRRR [Peptide A4610]
cell viability (MTT assay) (cell viability): reduced cell viability

DSGLFDFVNFVRRRRRRRRR [Peptide A469]
cell viability (MTT assay) (cell viability): reduced cell viability

KYSAKLILAEY-9R (KYSAKLILAEYRRRRRRRRR) [Peptide F4A]
inhibitory potential compared to parental A464 (alanine scan) (TLR4 [2]): reduced inhibitory potential

KYSFALILAEY-9R (KYSFALILAEYRRRRRRRRR) [Peptide K5A]
inhibitory potential compared to parental A464 (alanine scan) (TLR4 [2]): reduced inhibitory potential

KYSFK-9R [Peptide A464C-6]
inhibition of LPS-induced mTNFα production (TLR4 [3]): lost its ability to inhibit LPS-induced TNFα production

KYSFKAILAEY-9R (KYSFKAILAEYRRRRRRRRR) [Peptide L6A]
inhibitory potential compared to parental A464 (alanine scan) (TLR4 [2]): reduced inhibitory potential | inhibition compared to A464 (alanine scan) (TLR4 [3]; peptide 5 μM, 10 ng/ml LPS): reduced inhibition

KYSFKLALAEY-9R (KYSFKLALAEYRRRRRRRRR) [Peptide I7A]
inhibitory potential compared to parental A464 (alanine scan) (TLR4 [2]): reduced inhibitory potential

KYSFKLILAEYRRRRRRRRR [D-A464]
inhibition of LPS-induced hTNFα production (TLR4 [2]): only blocked TNFα secretion at 25 μM | inhibition of LPS-induced mTNFα production (TLR4 [3]): complete inhibition at 1

TYLYNKYSFKLRRRRRRRRR [Peptide A463]
cell viability (MTT assay) (cell viability): reduced cell viability

sA464C9R (SFKLILRRRRRRRRR)
inhibition of LPS-induced TNFα by short peptides (TLR4 [4]): only when the delivery sequence was at the N-terminus

sA464N9R (RRRRRRRRRSFKLIL)
inhibition of LPS-induced TNFα by short peptides (TLR4 [4]): inhibited LPS-induced TNFα production as potently as A464 (SEQ ID No. 20) at 5 μM
